Here are results for four molecules from patent US20140336365A1, “CDR REGIONS OF MONOCLONAL ANTIBODY THAT ANTAGONIZE SPHINOGOSINE 1-PHOSPHATE AND RELATED METHODS” (priority 2011, published 2014).

The subject of one test is S1P receptors. As to conditions: with the exception of S1P2; by stable internalization; cited from earlier work.
A further test has as its system tumor transplant model. To be noted: cited from earlier work.
In test [1] the test system is MDA-MB-231 breast cancer cells. The test is described as follows: S1P-induced cytoskeletal rearrangement / cell rounding (phalloidin staining). Type of test: cell-based, human. How it is done: MDA-MB-231 breast cancer cells are cultured on collagen-coated coverslips in the presence of 10% FBS using standard techniques. Because S1P is present at high concentrations in serum, BCCs are “serum-starved” in Dulbecco's modified Eagle medium (DMEM) for 12 hours prior to experimental manipulation. S1P is solubilized with bovine serum albumin (BSA) carrier and administered at a final concentration of 1 nM to 1 μM. Coverslips are collected at representative time points such as 10 minutes, 1 hr., 2 hrs., 4 hrs., and 6 hrs., fixed with 4% paraformaldehyde, and stained with rhodamine-conjugated phalloidin to label cytoskeletal actin.
The cell rounding experiment can be performed using an antagonist of S1P that binds to S1P3. For example, the antiserum described in Example 1 can be employed. Serum-starved MDA-MB-231 cells are incubated with preimmune serum or S1P3-reactive antiserum for 15 minutes prior to a 30-minute exposure to 10 nM S1P, then evaluated for response both in % cells responding and average cell area.
MDA-MB-231 cells are grown under standard culture conditions and serum starved for 24 hours prior to experimental manipulation. S1P3 antiserum or pre-immune serum obtained from the same rabbit is added to the media at a final concentration of 1:10,000 as indicated. 15 minutes later, S1P is added to the media to a final concentration of 10 nM. 30 minutes after S1P administration, cells are fixed with 4% paraformaldehyde, stained with rhodamine-conjugated phalloidin, and visualized with fluorescence microscopy. Rounded cells are counted by an experimenter blinded to the identity of the sample. Cell area is determined by quantification with ImageJ software.

Another test relates to MCF-7. Briefly: Cell proliferation by BrdU incorporation, MCF-7. It counts as cell-based, human. How it is done: (§1) The experiment can first be performed in the absence of the antagonist. The effect of S1P on cell proliferation is determined by measuring bromodeoxyuridine (BrdU) incorporation. In this assay, cells are treated with S1P or vehicle control (0.1% fatty acid-free BSA) for 30 minutes before being exposed to a 30-minute BrdU pulse. Cells are then fixed with ethanol, labeled with a biotinylated α-BrdU antibody, incubated with streptavidin-peroxidase, developed with DAB, and counter-stained with hematoxylin. Nuclei of cells in S-phase during the 30-minute pulse are labeled brown, while non-proliferative cells show the blue hematoxylin stain.
(Incorporation of labelled thymidine or its analogues reports DNA synthesis.)

Test [2] has as its system MDA-MB-231 cells. The test is described as follows: Tamoxifen toxicity, cell viability by phase contrast microscopy. It counts as cell-based, human. How it is done:
The experiment can be performed first without a S1P antagonist. MDA-MB-231 cells are cultured under standard conditions in Dulbecco's Minimal Essential Media supplemented with 10% fetal bovine serum and glutamate. Cells are grown in the absence of serum for 24 hours prior to experimental manipulation. Tamoxifen (Tam) and S1P are added to the media at the indicated concentrations for the indicated times at the appropriate concentrations (e.g., 3 μM Tam, 10 μM Tarn, and 20 μM Tam) for appropriate times (e.g., 6 hrs. and 24 hrs.). Cell viability is observed by direct illumination with an inverted phase contrast microscope.
The tamoxifen toxicity experiment can be performed using an antagonist of S1P that binds to S1P3. For example, the antiserum described in Example 1 can be employed. MDA-MB-231 cells are cultured under standard conditions in Dulbecco's Minimal Essential Media supplemented with 10% fetal bovine serum and glutamate. Serum concentration is reduced to 1% for 24 hours prior to experimental manipulation. Tamoxifen and S1P are added to the media at the appropriate concentrations (e.g., 0 μM Tam, 10 μM Tam, and 20 μM Tam) for appropriate times (e.g., 6 hrs. and 24 hrs.). Cell viability is observed by direct illumination with an inverted phase contrast microscope.

Test [3] has as its system MDA-MB-231 cells. The test is described as follows: Cell motility, modified Boyden's chamber assay. It counts as cell-based, human. As to conditions: 1 μM S1P. The method, then:
Cell motility is determined using a modified Boyden's chamber assay. MDA-MB-231 cells are introduced into the upper wells of collagen-coated chambers in serum-free DMEM and incubated for 30 minutes before the addition of either 1 μM S1P in BSA or BSA alone. At the indicated times, wells are isolated and fixed with 4% paraformaldehyde before non-migrated cells in the upper well are removed with a cotton swab. Membranes are then stained with DAPI to visualize individual migrated cells on the bottom of the membranes. Results shown are the averages of three independent experiments.

For another test, the system named is MDA-MB-231. The test is described as follows: Cell proliferation by BrdU incorporation, MDA-MB-231. It counts as cell-based, human. The method, then: as §1
The test system of a further test is MCF-7 cells. The test is described as follows: Cell death by annexin V assay (FACS). To be noted: for % Annexin positive cells: overnight. Type of test: cell-based, human. The method, then: Quantification of cell death can be performed with an annexin V assay. […] of 500 nM S1P, then collected by trypsinization, and labeled with Alexafluor 488-conjugated annexin V (Invitrogen Corp, Carlsbad, Calif.) per manufacturer's protocol. Cells can be counted on a FACSAria cell sorting system and analyzed with FACSDiva software (BD Biosciences, San Jose, Calif.). […] This effect is attenuated by co-administration of 500 nM S1P.

The next test has as its target T1, S1P3 (Homo sapiens, UniProt Q99500).
T1 construct: expressed in transfected cells; host or cells: HEK293 (pcDNA3.1)
Briefly: Immunocytochemistry of hybridoma supernatants on HEK293 cells expressing tagged S1P3. To be noted: HEK293 cells expressing S1P3 fused to V5 or EGFP. Type of test: binding. An excerpt: A synthetic peptide is synthesized with the amino acid sequence: KKTFSLSPTVWFLREG. This sequence corresponds to the extra-cellular loop between transmembrane domains 2 and 3 of cell surface receptor S1P3. This peptide is conjugated to keyhole limpet hemocyanin (KLH) and used for the immunization of 5 balb/c mice. Production of specific antibodies is confirmed by immunocytochemistry. HEK293 cells are transiently transfected with a mammalian expression vector (pcDNA3.1) encoding the full-length S1P3 protein fused to either a V5 epitope or enhanced green fluorescent protein (EGFP) on its C-terminal end. After 16-36 hours, cells are fixed with 4% paraformaldehyde, blocked with BSA, and exposed to antiserum from immunized mice (dilutions of 1:10, 1:25, 1:50, 1:100, 1:250, 1:500, 1:1,000, 1:2,000, 1:5,000), or supernatants from hybridoma cultures. […] Binding of antibodies from serum or supernatants is detected with a Cy3-conjugated secondary antibody. Specificity of binding is evaluated by coincidence of this signal with green fluorescence, either from the expressed EGFP fusion protein or from secondary antibody bound to the expressed V5 epitope.
Mice are immunized with KLH-conjugated peptide at regular intervals and evaluated by enzyme-linked immunosorbent assay (ELISA) and immunocytochemistry until sera are identified that contain specific antibodies (2-3 months). […]

T1 sequence (Q99500 whole entry): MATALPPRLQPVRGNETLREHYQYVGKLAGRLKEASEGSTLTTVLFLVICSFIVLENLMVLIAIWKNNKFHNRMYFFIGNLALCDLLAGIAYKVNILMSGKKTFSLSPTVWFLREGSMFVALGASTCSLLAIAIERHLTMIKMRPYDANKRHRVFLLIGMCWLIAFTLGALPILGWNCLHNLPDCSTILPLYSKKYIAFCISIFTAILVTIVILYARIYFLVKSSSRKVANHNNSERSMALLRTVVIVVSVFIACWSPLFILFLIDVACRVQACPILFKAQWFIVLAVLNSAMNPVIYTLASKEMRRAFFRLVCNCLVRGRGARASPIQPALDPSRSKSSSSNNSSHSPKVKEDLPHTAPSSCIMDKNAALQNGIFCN

As for `CCCCCCCCc1ccc(CCC(N)(CO)CO)cc1` [FTY720], the “Inhibition of S1P receptors” value with S1P receptors is listed as “effectively inhibit four of the five known receptors”. Also, in the test with tumor transplant model, the “Effect on angiogenesis and tumor growth” value was “inhibit angiogenesis and subsequent growth”.
Turning to `CCCCCCCCCCCCC/C=C/[C@@H](O)[C@@H](N)COP(=O)(O)O` [S1P, Sphingosine 1-phosphate], the Cell shape change result in test [1] (1 nM S1P) is “minor cell shape changes”; in test [1] (10 nM S1P), “dramatic cell rounding”. Also, the “% Rounded Cells Following S1P Treatment” value in test [1] (10 nM S1P, 30 min, no serum) worked out at 64%. Moreover, the “Average Cell Area Following S1P Treatment” value in [1] (10 nM S1P, 30 min, no serum) is listed as 960.4 μm^2. Besides, in [1] (1 μM S1P, within 10 minutes), the “Cells with marked cytoskeletal rearrangement” value is on record as more than 90%. Besides, the “Effect on mitosis (BrdU incorporation), in words” value in the test on MCF-7 and in the test on MDA-MB-231 was “dose-dependent increase in mitosis” in each case. Further, the “Mitosis by BrdU incorporation” value is given as 49% in the test on MCF-7 (10 nM S1P); 45% with MCF-7 (100 nM S1P); 61% in the test with MCF-7 (1 μM S1P); 71% in the test on MDA-MB-231 (10 nM S1P); 84% with MDA-MB-231 (100 nM S1P); 88% with MDA-MB-231 (1 μM S1P). Also, the “Cell viability under tamoxifen with S1P” value with MDA-MB-231 cells [2] (1 μM S1P with 10 or 20 μM tamoxifen, 6 hours, serum-free) is on record as “many viable cells remain”. Further, in the test with MDA-MB-231 cells [2] (S1P with 3 or 10 μM tamoxifen, 24 hour, serum-free), the “Survival under tamoxifen with S1P” value is “markedly improves survival”. The “Effect on cell motility compared to vehicle control, in words” value in the test on MDA-MB-231 cells [3] was “rapid and significant increase in cell motility”. For the same molecule, the “Cell migration (migrated cells)” value in the test on MDA-MB-231 cells [3] (1 hours) worked out at 672.5 Cells/mm^2; with MDA-MB-231 cells [3] (2 hours), 900 Cells/mm^2; with MDA-MB-231 cells [3] (4 hours) it was 1385 Cells/mm^2. In addition, the “Increase in migrated cells compared to vehicle control” value is “nearly two-fold increase” with MDA-MB-231 cells [3] (two hour time point) and 74% in the test on MDA-MB-231 cells [3] (within one hour). For the same molecule, the “% Annexin positive cells” value with MCF-7 cells (500 nM S1P with 10 μM Tamoxifen) amounted to 15.9%; with MCF-7 cells (500 nM S1P with 20 μM Tamoxifen) it was 20.2%; with MCF-7 cells (500 nM S1P, 0 Tamoxifen) it was 6.2%. In addition, in the test with MCF-7 cells (co-administration of 500 nM S1P), the “Effect on tamoxifen-induced annexin V binding, in words” value is on record as “attenuated”.
As to `CC/C(=C(\c1ccccc1)c1ccc(OCCN(C)C)cc1)c1ccccc1` [Tamoxifen], the Cell viability result with MDA-MB-231 cells [2] (3 μM tamoxifen, 24 hour, serum-free) is reported as “most control cells are lost”; in the test on MDA-MB-231 cells [2] (10 μM Tam, 6 hours, 1% FBS), “appear normal”; in the test with MDA-MB-231 cells [2] (10 μM tamoxifen, 6 hours, serum-free), “only a few viable cells remain”; in the test with MDA-MB-231 cells [2] (10 μM tamoxifen, 24 hour, serum-free), “cell death is complete”; in the test on MDA-MB-231 cells [2] (20 μM Tam, 6 hours, 1% FBS), “begin to show evidence of cell death”; with MDA-MB-231 cells [2] (20 μM tamoxifen, 6 hours, serum-free), “all cells are dead/dying”. The “% Annexin positive cells” value turned out to be 20.1% with MCF-7 cells (10 μM Tamoxifen, BSA (no S1P)) and 28.9% in the test on MCF-7 cells (20 μM Tamoxifen, BSA (no S1P)). In addition, in the test on MCF-7 cells (overnight treatment with tamoxifen), the “Effect on annexin V binding (apoptotic cell death), in words” value is on record as “increase in annexin V binding”.

B1: EDDbeta7H9: Hybridoma EDDbeta7H9 (ATCC PTA-9973) produces the monoclonal antibody Mab7H9, which binds S1P3 (antibody, V domains shown)
VL: DIVMTQSHKFMSTSVGDRVSITCKASQDVSTGVVWYQQKEGQSPKLLIYSASYRYTGVPNRFTGSGSGTDFTFTISGVQAEDLAVYYCQQHYSSPTFGGGTKLEIKRADAAPTVSIFPPSS
VH: QVTLKESGPGILQPSQTLSLTCSFSGFSLSTSNMGVGWIRQPSGKGLEWLLHILWNDNKHYNPALKSRLTISKDTYKNQVFLKIANVDTADTATYYCARILYRSNYYVMDYWGQGTSVTVSSAKTTPPSVYPL
Turning to B1, in the test with S1P3, the “Presence of specific antibodies in hybridoma supernatant by immunocytochemistry” value is “positive”.
